# Measurements reported in PubChem BioAssay (NCI).
#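 48-hour exposure; five concentrations; linearly interpolated endpoints. Here, GI50 denotes the concentration required for 50% inhibition of growth. TGI denotes the concentration required for complete inhibition of growth.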 Where a SMILES comes first, the peptide text is derived from it. The star is where a group is joined. Cbz = O=C(OCc1ccccc1)*; CH2Cl = ClC*
# System: NCI-H23 lung
# Assay: NCI-60 cell line screen, 48 h
Structure (SMILES),GI50 [µM],TGI [µM]
CN(C)CC[PH+](c1ccccc1)c1ccccc1.CN(C)CC[PH+](c1ccccc1)c1ccccc1.[Cl-].[Pd+2],> 100,> 100
O=C(O)Cc1cc(Cl)ccc1O,–,> 100
O=C(c1ccccc1)c1cc2ccccc2o1,> 100,> 100
C=C(C)[C@@H]1CC[C@]2(C)[C@H](CC=C3[C@@H]4CC(C)(C)CC[C@]4(C(N)=O)CC[C@]32C)[C@@]1(C)CCC#N,3.66,> 100
COc1c(OC[C@H](O)CN2CCOCC2)ccc2c3n(c(=NC(=O)c4cccnc4C)nc12)CCN3,> 50,> 50
COc1ccc(-c2nc3ccc(-c4nc5ccc(N6CCN(c7ccccc7)CC6)cc5[nH]4)cc3[nH]2)cc1OC,1.77,3.66
O=C(N[C@@H](c1ccc(Cl)c(Cl)c1)C1CNC1)c1ccc2cnccc2c1,0.336,10.8
CO/N=C(\COc1ccc2c(c1)oc(=O)c1cc(OC)ccc12)c1ccc(OC)cc1,> 100,> 100
Nc1nc(/C=C\c2ccc([N+](=O)[O-])s2)nc(N2CCCC2)n1,5.84,18.6
Clc1ccc2[nH]cc(-c3nnnn3-c3ccccc3)c2c1,8.11,49.9
CC(=O)OC12C=CC(=O)N1c1ccccc1C(=O)O2 (centres undefined),–,> 100
CCCC(=O)Nc1cc2c3c(c1)CCCN3CCC2,–,> 10
COc1cc(-c2cc(-c3cc4c([nH]c5ccccc54)c(-c4cc(OC)c(OC)c(OC)c4)n3)cc(-c3ccccc3)n2)cc(OC)c1OC,5.52,> 100
CC(C)Oc1ccc2cc(-c3nn(CC4CCNCC4)c4ncnc(N)c34)ccc2c1,11.3,25.8
CS(=O)(=O)CCNCc1nc(-c2ccc3ncnc(Nc4ccc(OCc5cccc(C(F)(F)F)c5)cc4)c3c2)cs1,12.5,> 25
CC(C)CC(NC(=O)OCc1ccccc1)C(=O)NC(Cc1ccccc1)C(=O)CCl (stereo not drawn) (Cbz-Leu-Phe-CH2Cl; configuration not given here),–,4.9
CCOC(=O)C(Cc1ccc(CCCC(=O)NCCC(=O)Nc2ccc3nc(C)sc3c2)cc1)C(=O)OCC,28.9,> 93.7
NCCNc1c2c(c(NCCN)c3[nH]ccc13)C(=O)c1ccccc1C2=O,0.0741,0.475
Cc1c2c(C#N)nccc2c(C)c2c1c1ccccc1n2Cc1ccccc1,–,> 100

# System: T-47D breast
# Assay: NCI-60 cell line screen, 48 h
Structure (SMILES),GI50 [µM],TGI [µM]
CN(C)CC[PH+](c1ccccc1)c1ccccc1.CN(C)CC[PH+](c1ccccc1)c1ccccc1.[Cl-].[Pd+2],> 100,> 100
O=C(O)Cc1cc(Cl)ccc1O,–,> 100
O=C(c1ccccc1)c1cc2ccccc2o1,83.3,> 100
C=C(C)[C@@H]1CC[C@]2(C)[C@H](CC=C3[C@@H]4CC(C)(C)CC[C@]4(C(N)=O)CC[C@]32C)[C@@]1(C)CCC#N,3.27,> 100
COc1c(OC[C@H](O)CN2CCOCC2)ccc2c3n(c(=NC(=O)c4cccnc4C)nc12)CCN3,0.0315,0.361
COc1ccc(-c2nc3ccc(-c4nc5ccc(N6CCN(c7ccccc7)CC6)cc5[nH]4)cc3[nH]2)cc1OC,1.68,5.19
O=C(N[C@@H](c1ccc(Cl)c(Cl)c1)C1CNC1)c1ccc2cnccc2c1,0.0591,3.57
CO/N=C(\COc1ccc2c(c1)oc(=O)c1cc(OC)ccc12)c1ccc(OC)cc1,> 100,> 100
Nc1nc(/C=C\c2ccc([N+](=O)[O-])s2)nc(N2CCCC2)n1,1.68,14.1
Clc1ccc2[nH]cc(-c3nnnn3-c3ccccc3)c2c1,> 45.3,> 100
CC(=O)OC12C=CC(=O)N1c1ccccc1C(=O)O2 (centres undefined),> 100,> 100
CCCC(=O)Nc1cc2c3c(c1)CCCN3CCC2,–,> 10
COc1cc(-c2cc(-c3cc4c([nH]c5ccccc54)c(-c4cc(OC)c(OC)c(OC)c4)n3)cc(-c3ccccc3)n2)cc(OC)c1OC,2.8,35.4
CC(C)Oc1ccc2cc(-c3nn(CC4CCNCC4)c4ncnc(N)c34)ccc2c1,9.81,24.9
CS(=O)(=O)CCNCc1nc(-c2ccc3ncnc(Nc4ccc(OCc5cccc(C(F)(F)F)c5)cc4)c3c2)cs1,5.42,> 25
CC(C)CC(NC(=O)OCc1ccccc1)C(=O)NC(Cc1ccccc1)C(=O)CCl (stereo not drawn) (Cbz-Leu-Phe-CH2Cl; configuration not given here),–,4.89
CCOC(=O)C(Cc1ccc(CCCC(=O)NCCC(=O)Nc2ccc3nc(C)sc3c2)cc1)C(=O)OCC,19.7,74.1
NCCNc1c2c(c(NCCN)c3[nH]ccc13)C(=O)c1ccccc1C2=O,1.63,> 100
Cc1c2c(C#N)nccc2c(C)c2c1c1ccccc1n2Cc1ccccc1,–,> 100
COc1ccc2c(c1)C(=O)c1c-2c(N2CCN(C(=O)CNCCNCCO)CC2)nc2ccccc12,2.49,6.55

# System: SK-MEL-5 melanoma
# Assay: NCI-60 cell line screen, 48 h
Structure (SMILES),GI50 [µM],TGI [µM]
CN(C)CC[PH+](c1ccccc1)c1ccccc1.CN(C)CC[PH+](c1ccccc1)c1ccccc1.[Cl-].[Pd+2],> 100,> 100
O=C(O)Cc1cc(Cl)ccc1O,–,> 100
O=C(c1ccccc1)c1cc2ccccc2o1,80,> 100
C=C(C)[C@@H]1CC[C@]2(C)[C@H](CC=C3[C@@H]4CC(C)(C)CC[C@]4(C(N)=O)CC[C@]32C)[C@@]1(C)CCC#N,1.83,3.31
COc1c(OC[C@H](O)CN2CCOCC2)ccc2c3n(c(=NC(=O)c4cccnc4C)nc12)CCN3,> 50,> 50
COc1ccc(-c2nc3ccc(-c4nc5ccc(N6CCN(c7ccccc7)CC6)cc5[nH]4)cc3[nH]2)cc1OC,1.47,3.31
O=C(N[C@@H](c1ccc(Cl)c(Cl)c1)C1CNC1)c1ccc2cnccc2c1,2.85,12.1
CO/N=C(\COc1ccc2c(c1)oc(=O)c1cc(OC)ccc12)c1ccc(OC)cc1,> 100,> 100
Nc1nc(/C=C\c2ccc([N+](=O)[O-])s2)nc(N2CCCC2)n1,9.66,22.5
Clc1ccc2[nH]cc(-c3nnnn3-c3ccccc3)c2c1,9.97,28.8
CC(=O)OC12C=CC(=O)N1c1ccccc1C(=O)O2 (centres undefined),–,> 100
CCCC(=O)Nc1cc2c3c(c1)CCCN3CCC2,–,> 10
COc1cc(-c2cc(-c3cc4c([nH]c5ccccc54)c(-c4cc(OC)c(OC)c(OC)c4)n3)cc(-c3ccccc3)n2)cc(OC)c1OC,2.46,7.61
CC(C)Oc1ccc2cc(-c3nn(CC4CCNCC4)c4ncnc(N)c34)ccc2c1,11.6,23.8
CS(=O)(=O)CCNCc1nc(-c2ccc3ncnc(Nc4ccc(OCc5cccc(C(F)(F)F)c5)cc4)c3c2)cs1,> 21.6,> 25
CC(C)CC(NC(=O)OCc1ccccc1)C(=O)NC(Cc1ccccc1)C(=O)CCl (stereo not drawn) (Cbz-Leu-Phe-CH2Cl; configuration not given here),–,3.5
CCOC(=O)C(Cc1ccc(CCCC(=O)NCCC(=O)Nc2ccc3nc(C)sc3c2)cc1)C(=O)OCC,15.4,29.2
NCCNc1c2c(c(NCCN)c3[nH]ccc13)C(=O)c1ccccc1C2=O,0.178,0.808
Cc1c2c(C#N)nccc2c(C)c2c1c1ccccc1n2Cc1ccccc1,–,> 100
COc1ccc2c(c1)C(=O)c1c-2c(N2CCN(C(=O)CNCCNCCO)CC2)nc2ccccc12,13.3,27.5

# System: OVCAR-4 ovarian
# Assay: NCI-60 cell line screen, 48 h
Structure (SMILES),GI50 [µM],TGI [µM]
CN(C)CC[PH+](c1ccccc1)c1ccccc1.CN(C)CC[PH+](c1ccccc1)c1ccccc1.[Cl-].[Pd+2],> 100,> 100
O=C(O)Cc1cc(Cl)ccc1O,–,> 100
O=C(c1ccccc1)c1cc2ccccc2o1,> 100,> 100
C=C(C)[C@@H]1CC[C@]2(C)[C@H](CC=C3[C@@H]4CC(C)(C)CC[C@]4(C(N)=O)CC[C@]32C)[C@@]1(C)CCC#N,2.56,> 100
COc1c(OC[C@H](O)CN2CCOCC2)ccc2c3n(c(=NC(=O)c4cccnc4C)nc12)CCN3,> 50,> 50
COc1ccc(-c2nc3ccc(-c4nc5ccc(N6CCN(c7ccccc7)CC6)cc5[nH]4)cc3[nH]2)cc1OC,1.52,3.04
O=C(N[C@@H](c1ccc(Cl)c(Cl)c1)C1CNC1)c1ccc2cnccc2c1,1.8,12.7
CO/N=C(\COc1ccc2c(c1)oc(=O)c1cc(OC)ccc12)c1ccc(OC)cc1,20.5,> 100
Nc1nc(/C=C\c2ccc([N+](=O)[O-])s2)nc(N2CCCC2)n1,5,14.1
Clc1ccc2[nH]cc(-c3nnnn3-c3ccccc3)c2c1,> 43.8,> 100
CC(=O)OC12C=CC(=O)N1c1ccccc1C(=O)O2 (centres undefined),–,> 100
CCCC(=O)Nc1cc2c3c(c1)CCCN3CCC2,–,> 10
COc1cc(-c2cc(-c3cc4c([nH]c5ccccc54)c(-c4cc(OC)c(OC)c(OC)c4)n3)cc(-c3ccccc3)n2)cc(OC)c1OC,5.31,74.2
CC(C)Oc1ccc2cc(-c3nn(CC4CCNCC4)c4ncnc(N)c34)ccc2c1,5.24,19.5
CS(=O)(=O)CCNCc1nc(-c2ccc3ncnc(Nc4ccc(OCc5cccc(C(F)(F)F)c5)cc4)c3c2)cs1,> 25,> 25
CC(C)CC(NC(=O)OCc1ccccc1)C(=O)NC(Cc1ccccc1)C(=O)CCl (stereo not drawn) (Cbz-Leu-Phe-CH2Cl; configuration not given here),–,4.69
CCOC(=O)C(Cc1ccc(CCCC(=O)NCCC(=O)Nc2ccc3nc(C)sc3c2)cc1)C(=O)OCC,38.1,> 100
NCCNc1c2c(c(NCCN)c3[nH]ccc13)C(=O)c1ccccc1C2=O,0.296,1.34
Cc1c2c(C#N)nccc2c(C)c2c1c1ccccc1n2Cc1ccccc1,–,> 100
COc1ccc2c(c1)C(=O)c1c-2c(N2CCN(C(=O)CNCCNCCO)CC2)nc2ccccc12,6.71,19.4

# System: UACC-257 melanoma
# Assay: NCI-60 cell line screen, 48 h
Structure (SMILES),GI50 [µM],TGI [µM]
CN(C)CC[PH+](c1ccccc1)c1ccccc1.CN(C)CC[PH+](c1ccccc1)c1ccccc1.[Cl-].[Pd+2],> 100,> 100
O=C(O)Cc1cc(Cl)ccc1O,–,> 100
O=C(c1ccccc1)c1cc2ccccc2o1,77.9,> 100
C=C(C)[C@@H]1CC[C@]2(C)[C@H](CC=C3[C@@H]4CC(C)(C)CC[C@]4(C(N)=O)CC[C@]32C)[C@@]1(C)CCC#N,4.09,> 100
COc1c(OC[C@H](O)CN2CCOCC2)ccc2c3n(c(=NC(=O)c4cccnc4C)nc12)CCN3,1.11,> 50
COc1ccc(-c2nc3ccc(-c4nc5ccc(N6CCN(c7ccccc7)CC6)cc5[nH]4)cc3[nH]2)cc1OC,2.05,4.4
O=C(N[C@@H](c1ccc(Cl)c(Cl)c1)C1CNC1)c1ccc2cnccc2c1,0.49,4.84
CO/N=C(\COc1ccc2c(c1)oc(=O)c1cc(OC)ccc12)c1ccc(OC)cc1,> 100,> 100
Nc1nc(/C=C\c2ccc([N+](=O)[O-])s2)nc(N2CCCC2)n1,4.39,15.6
Clc1ccc2[nH]cc(-c3nnnn3-c3ccccc3)c2c1,24.9,71
CC(=O)OC12C=CC(=O)N1c1ccccc1C(=O)O2 (centres undefined),–,> 100
CCCC(=O)Nc1cc2c3c(c1)CCCN3CCC2,–,> 10
COc1cc(-c2cc(-c3cc4c([nH]c5ccccc54)c(-c4cc(OC)c(OC)c(OC)c4)n3)cc(-c3ccccc3)n2)cc(OC)c1OC,6.14,44.6
CC(C)Oc1ccc2cc(-c3nn(CC4CCNCC4)c4ncnc(N)c34)ccc2c1,1.95,3.98
CS(=O)(=O)CCNCc1nc(-c2ccc3ncnc(Nc4ccc(OCc5cccc(C(F)(F)F)c5)cc4)c3c2)cs1,> 25,> 25
CC(C)CC(NC(=O)OCc1ccccc1)C(=O)NC(Cc1ccccc1)C(=O)CCl (stereo not drawn) (Cbz-Leu-Phe-CH2Cl; configuration not given here),–,23.7
CCOC(=O)C(Cc1ccc(CCCC(=O)NCCC(=O)Nc2ccc3nc(C)sc3c2)cc1)C(=O)OCC,34.7,> 87.1
NCCNc1c2c(c(NCCN)c3[nH]ccc13)C(=O)c1ccccc1C2=O,2.63,7.5
Cc1c2c(C#N)nccc2c(C)c2c1c1ccccc1n2Cc1ccccc1,–,> 100
COc1ccc2c(c1)C(=O)c1c-2c(N2CCN(C(=O)CNCCNCCO)CC2)nc2ccccc12,2.83,6.4
